Read-outs that look alike come from different tables or passages of the source.

Results on one compound are retold here after patent US8012949B2, “Bisphosphonate compounds and methods with enhanced potency for multiple targets including FPPS, GGPPS, and DPPS” (The Board of Trustees of the University of Illinois, priority 2004, dated 2011).

The target of data set [1] is T1, human DPPS (Homo sapiens, UniProt Q5T2R2).
T1 construct: made in house
T1 sequence (Q5T2R2 1-415): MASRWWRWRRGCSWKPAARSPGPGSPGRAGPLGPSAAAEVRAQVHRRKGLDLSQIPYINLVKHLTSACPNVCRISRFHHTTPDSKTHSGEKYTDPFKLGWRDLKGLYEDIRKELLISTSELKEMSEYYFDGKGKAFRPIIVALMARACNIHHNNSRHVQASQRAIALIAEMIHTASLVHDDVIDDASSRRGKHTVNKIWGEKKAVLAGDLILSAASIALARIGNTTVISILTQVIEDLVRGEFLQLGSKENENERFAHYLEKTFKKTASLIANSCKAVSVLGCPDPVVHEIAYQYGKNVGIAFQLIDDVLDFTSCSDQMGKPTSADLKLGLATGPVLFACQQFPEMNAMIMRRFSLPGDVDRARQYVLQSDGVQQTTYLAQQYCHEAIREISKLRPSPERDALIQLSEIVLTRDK
T1 sequence (Q86YH6 1-399 partner): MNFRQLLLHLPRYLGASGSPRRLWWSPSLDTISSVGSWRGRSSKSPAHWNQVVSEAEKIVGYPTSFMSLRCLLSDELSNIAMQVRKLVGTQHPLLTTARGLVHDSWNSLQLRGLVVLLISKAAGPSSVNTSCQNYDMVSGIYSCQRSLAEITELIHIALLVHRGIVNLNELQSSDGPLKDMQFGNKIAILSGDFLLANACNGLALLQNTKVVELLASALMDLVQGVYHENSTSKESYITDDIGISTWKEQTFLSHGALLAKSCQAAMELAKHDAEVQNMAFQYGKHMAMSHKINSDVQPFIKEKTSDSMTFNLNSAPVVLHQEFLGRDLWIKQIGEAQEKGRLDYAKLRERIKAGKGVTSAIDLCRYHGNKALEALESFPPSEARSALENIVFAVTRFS
Briefly: human DPPS enzyme inhibition. The settings on record: Table 1, experimental; read-out: DPPS_pKi (converted). The data set is classed as biochemical. The source says:
(§1) To test our polypharmaceutical hypothesis, we expressed three enzymes: human FPPS, GGPPS and DPPS, and tested each for their inhibition by a series of bisphosphonates.

Data set [2] deals with SK-ES-1 sarcoma cells. The data set can be described thus: SK-ES-1 sarcoma mouse xenograft. The settings on record: daily intraperitoneal 5 μg, athymic nude mice, SK-ES-1 xenograft.
Data set [3] is described as follows: Adsorption onto bone in vivo. The source says: (§2) A potential drawback to the use of bisphosphonates in treating non-bone resorption diseases is expected to be that they would be rapidly adsorbed onto bone. […]
In data set [4] the test system is bone resorption. The data set can be described thus: Bone resorption IC50.
Excerpt: as §2

Data set [5] concerns NCI-H460 (lung large cell). Briefly: NCI-H460 cell growth inhibition (MTT). The data set is classed as cell-based, human. The following applies: Homo sapiens, NCI-H460; Table 1, experimental; read-out: NCI-H460 pIC50 (converted).
For data set [6], the target named is T2, human FPPS (Homo sapiens, UniProt P14324).
T2 construct: made in house
T2 sequence (P14324 1-419): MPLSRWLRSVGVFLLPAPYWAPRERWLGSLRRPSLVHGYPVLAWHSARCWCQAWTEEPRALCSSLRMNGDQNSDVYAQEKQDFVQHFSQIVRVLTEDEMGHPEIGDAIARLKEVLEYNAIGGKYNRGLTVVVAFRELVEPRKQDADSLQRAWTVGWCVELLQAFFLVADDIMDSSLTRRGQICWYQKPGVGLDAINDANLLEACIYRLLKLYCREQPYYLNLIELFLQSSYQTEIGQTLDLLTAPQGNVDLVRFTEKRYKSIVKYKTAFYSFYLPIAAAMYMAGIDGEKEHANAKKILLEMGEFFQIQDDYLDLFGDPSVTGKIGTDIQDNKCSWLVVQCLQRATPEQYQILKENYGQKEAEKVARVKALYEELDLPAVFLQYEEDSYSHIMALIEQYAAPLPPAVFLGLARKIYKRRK
The data set can be described thus: human FPPS enzyme inhibition. The data set is classed as biochemical. The settings on record: Table 1, experimental; read-out: FPPS pKi (converted).
Excerpt: as §1

The subject of data set [7] is Vγ2Vδ2 T cells. Briefly: γδ T cell activation (TNF-α release and proliferation). The data set is classed as cell-based, human. Summed up:
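Vγ2Vδ2 T cell clones (CD4+ JN.24, CD4+ HF.2, CD8αα+ 12G12, CD4−8− HD.108) stimulated with phosphoantigens plus 0.05% glutaraldehyde-fixed APCs: CP.EBV B cells for CD4+ clones, Va-2 fibroblasts for others. TNF-α release and proliferation measured; curve minima from global fitting per experiment, maxima fitted per compound unconstrained.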

Data set [8] concerns MCF-7 (breast adenocarcinoma). Briefly: MCF-7 cell growth inhibition (MTT), incl. FOH/GGOH rescue. The data set is classed as cell-based, human. The following applies: for IC50: Homo sapiens.
Data set [9] has as its system SF-268 (central nervous system glioblastoma). Briefly: SF-268 cell growth inhibition (MTT). The data set is classed as cell-based, human. The settings on record: Homo sapiens, SF-268; Table 1, experimental; read-out: SF-268 pIC50 (converted).

With `CCCCCCCCCCOc1ccc[n+](CC(P(=O)([O-])O)P(=O)(O)O)c1` (centres unmarked) [BPH-715], the Ki in data set [1] is 5.01 nM; in data set [6] it was 50.1 nM. In data set [2], the “reduction in tumor cell growth” value is “even more pronounced (p=0.032 versus zoledronate)”. The “adsorption onto bone in vivo” value in data set [3] was “only very weakly adsorbed”. Also, the IC50 in data set [4] is approximately 800 nM; in data set [5], 63.1 nM; in data set [8] (MCF7, FIG. 2A, read-out: IC50, MCF-7 tumor cell growth inhibition), approximately 50 nM; in data set [8] (MCF7, Table 1, experimental, read-out: MCF-7 pIC50 (converted)) it was 200 nM; in data set [8] (MCF7, Table 2, -log10(value, M), read-out: MCF-7 Cell pIC50 (converted)), 107 nM; in data set [9], 100 nM. Moreover, the “γδ T cell activation” value in data set [7] is “potent activity”. For the same compound, the EC50 in data set [7] (Homo sapiens, T-cell, Table 2, -log10(value, M), read-out: γδ T Cell Avg pED50 (converted)) is 891 nM. Also, the “rescue from growth inhibition by addition of farnesol” value in data set [8] (FOH fixed 20 μM) is on record as “no rescue”. The “rescue from growth inhibition by geranylgeraniol (GGOH)” value in data set [8] (GGOH 20 μM) is given as “only a partial rescue”.
